Results reported in patent publication US10111846B2, “S isomers of alpha-methyl-hydrocinnamic acid for the treatment of blood disorders” (priority 2009, dated 2018).
“And” between values parts separate entries of the source, which are not always exact repeats. Equal values may be shown once.

Tests used:
pH solubility profile [1] = format: physicochemical
Experimental: Sodium a-methyl hydrocinnamate was added to DI water in excess to determine the saturation solubility in water. The samples (n=3) were shaken and vortexed for about two hours to dissolve sodium a-methyl hydrocinnamate. […] The pH of the saturated solution was determined to be about 10.4.
The pH of the saturated aqueous solution was successively adjusted to pH values of 8, 7, 6, and 5 using 50% v/v phosphoric acid to determine the saturation solubility of each pH. To determine the saturation solubility at each pH, the aqueous layer obtained at each pH was diluted further in water and analyzed by UV. The pH solubility data and plot are presented in Table 1 and FIG. 13A, respectively.

[2] = test system: sub-lethally irradiated mouse model; test: Sub-lethally irradiated (6 Gy) mouse model, ANC; format: in vivo, mice; conditions: 500 mg/kg IP and 300 mg/kg IP after 6 Gy irradiation on day 0
Experimental: FIG. 9 is a graph of absolute neutrophil count (ANC) response to NaST7 (500 mg/kg IP and 300 mg/kg IP) after sub-lethal does of irradiation where mice were exposed to 6 Gy irradiation on day 0 and daily ST7 (enantiomer) was administered at two doses, beginning day 1.
In particular, absolute neutrophil count (ANC) increased after administration of NaST7 (500 mg/kg IP and 300 mg/kg IP) after sub-lethal does of irradiation (e.g., exposure to 6 Gy irradiation on day 0).

pH solubility profile [3] = format: physicochemical; conditions: 200 mg/mL
[4] = Solubility in phosphate buffer containing 20% cyclodextrin; format: physicochemical; conditions: for Final pH (upon addition of drug): 250 mg/mL
Experimental: Phosphate buffer solutions at a target pH of 7 were prepared at buffer concentrations of 0.5M, 0.25M, and ˜0.1M, respectively. The buffer solutions contained 20% cyclodextrin.

[5] = Solubility in pH 4.7 acetate buffer; format: physicochemical; conditions: pH 4.7 acetate buffer (per USP), about 100 mg/mL
Experimental: The sodium α-methyl hydrocinnamate was added to pH 4.7 acetate buffer (per USP) at a concentration of about 100 mg/mL.

[6] = Solubility in citrate buffer containing 30% cyclodextrin; format: physicochemical
Experimental: Solubility of sodium a-methyl hydrocinnamate and buffer capacity of pH 5 citrate buffers prepared at four different buffer concentrations were evaluated as presented in Table 3.

pH stability profile = format: physicochemical; conditions: for Assay, initial: unit assumed; for Assay, 1 Week 60° C. / Assay, 1 Week RT: in % (unit assumed)
Experimental: The pH stability profile was determined at pH values of 2, 5, 6, 7, 8, 9, and 13 respectively. A pH 7 phosphate buffer at a buffer concentration of 100 mM was initially prepared. Six different aliquots of this buffer were successively adjusted to pH values of 2, […], 6, 8, 9, and 13 using either 50% v/v phosphoric acid or 1N sodium hydroxide solution. Transferred 0.2 mL of sodium α-methyl hydrocinnamate stock solution and 1 mL of alcohol into a 10.0 mL volumetric flask was made up the volume with each of the seven buffer solutions to yield a final concentration of ˜4 mg/ml of sodium α-methyl hydrocinnamate.
Diluted 0.5 ml of each solution to 5 mL with diluent and analysed by HLPC per AM-013-RO to determine the initial concentration of sodium α-methyl hydrocinnamate. The solution was divided into two parts, one part was kept at room temperature (RT) and the other part was kept at 60° C. to evaluate the stability of sodium α-methyl hydrocinnamate.

[7] = buffer pH 4*, pH 5* on addition of drug

## CC(Cc1ccccc1)C(=O)[O-].[Na+] (stereo not drawn) [sodium α-methyl hydrocinnamate]
pH solubility profile [1]; DI water, n=3
  saturation solubility in water: 655 mg/mL
pH solubility profile [1]; pH (average) 5
  Solubility, mg/mL, Average: 2.2 mg/mL
pH solubility profile [1]; pH (average) 6
  Solubility, mg/mL, Average: 2.8 mg/mL
  Solubility, mg/mL, samples 1, 2, 3: 2.7 mg/mL and 3.6 mg/mL and 2.2 mg/mL
pH solubility profile [1]; pH (average) 7
  Appearance: Turbid solution
  Solubility, mg/mL, Average: 559.0 mg/mL
  Solubility, mg/mL, samples 1, 2, 3: 653.5 mg/mL and 579.7 mg/mL and 443.8 mg/mL
pH solubility profile [1]; pH (average) 8
  Appearance: Clear solution
  Solubility, mg/mL, Average: 653.3 mg/mL
  Solubility, mg/mL, samples 1, 2, 3: 660.8 mg/mL and 663.6 mg/mL and 635.7 mg/mL
pH solubility profile [1]; pH (average) 10
  Appearance: Clear solution
  Solubility, mg/mL, Average: 655.1 mg/mL
  Solubility, mg/mL, samples 1, 2, 3: 631.7 mg/mL and 700.4 mg/mL and 633.3 mg/mL
pH solubility profile [1]; pH values of 7 and below
  solubility in aqueous solution: almost insoluble
pH solubility profile [1]; water
  pH of the saturated solution: about 10.4
[2]
  absolute neutrophil count (ANC): increased
pH solubility profile [3]
  pH of aqueous solution: about 10
[4]; 0.5M, 0.25M, ~0.1M, 20% cyclodextrin, target formulation concentration
  solubility in phosphate buffer solutions: observed to dissolve at the target formulation concentration
[4]; phosphate buffer 0.25 M, 20% Captisol, initial pH 6.3
  Final pH (upon addition of drug): 7.0
[4]; phosphate buffer 0.25 M, 20% Trappsol, initial pH 6.3
  Final pH (upon addition of drug): 6.8
[4]; phosphate buffer 0.5 M, 20% Captisol, initial pH 6.2
  Final pH (upon addition of drug): 6.8
[4]; phosphate buffer 0.5 M, 20% Trappsol, initial pH 6.3
  Final pH (upon addition of drug): 6.7
[4]; phosphate buffer ~0.1 M, 20% Captisol, initial pH 6.8
  Final pH (upon addition of drug): 7.9
[4]; phosphate buffer ~0.1 M, 20% Trappsol, initial pH 6.8
  Final pH (upon addition of drug): 7.6
[5]
  behaviour in acetate buffer: observed to separate from the aqueous layer
[6]; 0.25M and 0.1M citrate buffer, 30% Trappsol
  change of pH of buffer solution upon addition of target concentration: 1.5-2 units
[6]; 0.5M and 1 M
  solubility in citrate buffers of high concentrations: not soluble
[6]; citrate buffer 0.1 M, 30% Captisol, initial pH 4.9, 100 mg/ml
  Solubility (appearance): Clear
[6]; citrate buffer 0.1 M, 30% Captisol, initial pH 4.9, 250 mg/ml
  Solubility (appearance): Clear
[6]; citrate buffer 0.1 M, 30% Captisol, initial pH 4.9, after addition of drug
  pH: 7.3
[6]; citrate buffer 0.1 M, 30% Trappsol, initial pH 5.1, 100 mg/ml
  Solubility (appearance): Clear
[6]; citrate buffer 0.1 M, 30% Trappsol, initial pH 5.1, 250 mg/ml
  Solubility (appearance): Clear
[6]; citrate buffer 0.1 M, 30% Trappsol, initial pH 5.1, after addition of drug
  pH: 7.0
[6]; citrate buffer 0.25 M, 30% Trappsol, initial pH 5.1, 100 mg/ml
  Solubility (appearance): Clear
[6]; citrate buffer 0.25 M, 30% Trappsol, initial pH 5.1, 250 mg/ml
  Solubility (appearance): Clear
[6]; citrate buffer 0.25 M, 30% Trappsol, initial pH 5.1, after addition of drug
  pH: 6.5
[6]; citrate buffer 1.0, 0.5, 0.25 M, 30% Captisol, initial pH 4.9, 100 mg/ml
  Solubility (appearance): Insoluble
[6]; citrate buffer 1.0, 0.5 M, 30% Trappsol, initial pH 5.1, 100 mg/ml
  Solubility (appearance): Insoluble
pH stability profile; buffer pH 2
  pH, 1 Week 60° C.: 1.9
  pH, 1 Week RT: 2.2
  Assay, 1 Week 60° C.: 81.2
  Assay, 1 Week RT: 99.8
pH stability profile; buffer pH 2, ~4 mg/ml
  Assay, initial: 95.8%
pH stability profile; [7]
  pH, 1 Week 60° C.: 5.1
  pH, 1 Week RT: 5.3
  Assay, 1 Week 60° C.: 102.3
  Assay, 1 Week RT: 102.9
  Assay, initial: 98.8%
pH stability profile; buffer pH 6
  pH, 1 Week 60° C.: 6.0
  pH, 1 Week RT: 6.3
  Assay, 1 Week 60° C.: 102.9
  Assay, 1 Week RT: 102.9
  Assay, initial: 97.2%
pH stability profile; buffer pH 7
  pH, 1 Week 60° C.: 6.9
  pH, 1 Week RT: 7.2
  Assay, 1 Week 60° C.: 99.6
  Assay, 1 Week RT: 100.7
  Assay, initial: 94%
pH stability profile; buffer pH 8
  pH, 1 Week 60° C.: 8.1
  pH, 1 Week RT: 8.3
  Assay, 1 Week 60° C.: 100.8
  Assay, 1 Week RT: 100.4
  Assay, initial: 97.9%
pH stability profile; buffer pH 9
  pH, 1 Week 60° C.: 9.0
  pH, 1 Week RT: 9.2
  Assay, 1 Week 60° C.: 101.6
  Assay, 1 Week RT: 102.2
  Assay, initial: 98.8%
pH stability profile; buffer pH 13
  pH, 1 Week 60° C.: 12.7
  pH, 1 Week RT: 12.8
  Assay, 1 Week 60° C.: 12.9
  Assay, 1 Week RT: 11.2
  Assay, initial: 23.2%
pH stability profile; pH 2 solution stored for 1 week at 60° C.
  degradation: About 20%
pH stability profile; pH 13, initially
  degradation: About 80%
pH stability profile; pH 13, storage for 1 week at both room temperature and 60° C.
  degradation: 90%
pH stability profile; pH range of 2-9 at room temperature
  time stable: at least 1 week
pH stability profile; pH range of 5 to 9 when stored at 60° C.
  stability: stable for at least one week
